Earlier results as cited in patent US20210401795A1, “Compressible Cannabinoid Pharmaceutical Composition” (Imbucanna, Inc., priority 2019, published 2021).

What was measured:
[1] = pure CBD, twice-daily dosages, pediatric patients; ranging from total seizure freedom to the stated reductions
[2] = not given; remark: listed apart in the source

Compound	seizure reduction [1]	solubility in water	duration of appetite stimulant effect ([2]; after administration)	duration of action for psychoactive effects ([2]; after oral administration)	onset of action ([2]; after oral administration)	peak effect ([2]; after oral administration)
C=C(C)[C@@H]1CCC(C)=C[C@H]1c1c(O)cc(CCCCC)cc1O [CBD, cannabidiol]	25-80%	poorly soluble in water	–	–	–	–
CCCCCc1cc(O)c2c(c1)OC(C)(C)[C@@H]1CCC(C)=C[C@@H]21 [Dronabinol, (−)-trans-Δ^9-tetrahydrocannabinol]	–	–	≥ 24 h	4 to 6 h	0.5 to 1 h	2 to 4 h
